# Where two headings read alike, the source gives them in different places.
# Columns and labels:
# [1] = test system: Neuronal cells (NG108); assay: In vitro drug toxicity assay, neuronal cells; type: cell-based; conditions: NG-108
# [2] = test system: P. falciparum chloroquine-sensitive D6-strain; assay: In vitro drug susceptibility assay ([3H]-hypoxanthine incorporation), D6 strain; type: cell-based; conditions: Plasmodium falciparum
# Experimental: (§1) Potential resistance to halofuginone derivatives of P. falciparum isolates were tested. Isolates of P. falciparum stored in liquid nitrogen are thawed and cultivated in RPMI 1640 media with 6% human erythrocytes supplemented with 10% of human serum. The parasite cultures are maintained in an atmosphere of 5% CO2, 5% O2 and 90% N2 at 37° C. for the assay. The semi-automated micro-dilution technique of Desjardins is used to assess the sensitivity of the parasites to febrifugine and halofuginone derivatives. The incorporation of [3H]-hypoxanthine into the parasites is measured as a function of compound concentration to determine EC50 values.
# [3] = test system: Macrophage cells (J774); assay: In vitro drug toxicity assay, macrophage cells; type: cell-based; conditions: Mus musculus
# [4] = test system: P. falciparum chloroquine-resistant W2-strain; assay: In vitro drug susceptibility assay ([3H]-hypoxanthine incorporation), W2 strain; type: cell-based; conditions: Plasmodium falciparum
# Experimental: as §1
# [5] = target: T1, PfMRK (Plasmodium falciparum, UniProt P90584); assay: Kinase assay, recombinant plasmodial cyclin-dependent kinase; type: biochemical
# T1 sequence (P90584 1-324): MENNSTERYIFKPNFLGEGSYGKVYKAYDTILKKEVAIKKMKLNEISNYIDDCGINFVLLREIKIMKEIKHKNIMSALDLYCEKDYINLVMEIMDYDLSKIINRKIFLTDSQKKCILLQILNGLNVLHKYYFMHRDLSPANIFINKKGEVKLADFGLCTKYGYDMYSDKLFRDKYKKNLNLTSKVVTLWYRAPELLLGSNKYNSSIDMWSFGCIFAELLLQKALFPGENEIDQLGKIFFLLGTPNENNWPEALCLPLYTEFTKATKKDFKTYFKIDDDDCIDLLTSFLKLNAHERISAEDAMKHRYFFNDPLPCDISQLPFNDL
# Description: Halofuginone is a known to be a specific collagen gene transcription inhibitor. However, inhibition to other target enzymes by febrifugine, halofuginone and halofuginone derivatives in malarial parasites remain unknown. Quinazoline analogues (the family to which these compounds belong) are known to target dihydrofolate reductase, mammalian EGFR kinase, the stress-activated protein kinase and cyclin dependent kinase. A series of enzymatic assays are used to detect whether the derivatives have inhibition against these enzymes. DHFR assay is conducted using a well-characterized spectrophotometric method. Kinase assays are conducted using radioisotope-labeling technique. The responses of the recombinant kinases to the derivatives are measured in a scintillation b-counter and illustrated using SDS-page gel and PhosphoImager. These tests provide information on the compounds' abilities to interfere with the functions of these enzymes and alter the parasite physiological pathways on a molecular basis.
# [6] = test system: Plasmodium berghei; assay: Modified Thompson test in P. berghei-infected mice; type: in vivo; conditions: mice; for parasitemia of the infected mice: 10 mg/kg once/day for three days
# Experimental: An active animal use protocol mouse models are used to test the above compounds to determine antimalarial activity by using modified Thompson Test. In this test, IRC mice are inoculated intraperitoneally with P. berghei-infected erythrocytes from donor mice that are anesthetized and exsanguinated via cardiac puncture to collect infected blood. The pooled blood is then diluted with normal mouse serum to a concentration of 1×10^6 P. berghei erythrocytes per inoculum (0.1 ml). The groups of testing and control mice are inoculated with the infected blood on day 0 and then treated with various dosages of halofuginone or the derivatives in aqueous-based vehicles on day 3 through the day required. The drug is administered orally (PO), subcutaneously (SC), intramuscularly (IM), and/or intraperitoneally (IP) up to three times a day, based on the requirements. Blood films and body weights are taken on the third and sixth days post-infection, then at weekly intervals through day 60. Films are Giemsa-stained, examined using light microscopy for the determination of parasitemia. All mice with negative smears at 60 days are considered cured. The data from the in vivo testing verifies the antimalarial efficacy of febrifugine, halofuginone and the halofuginone derivatives in mice and provides new properties of halofuginone and halofuginone derivatives against malarial parasites in vivo.
# The modified Thompson test was conducted in eleven groups of mice with eight mice per group. The tested mice were inoculated with P. Berghei on day zero and treated with febrifugines on days three with one oral or subcutaneous treatment per day for three days. […] The parasitemia of the infected mice was reduced to less than 3% with oral administration of 10 mg/kg febrifugines one/day for three days, while mice with the subcutaneous treatment had 30% of parasitemia at the same does as shown in FIGS. 3(a) through 3(d).
# Eighty-eight ICR mice were inoculated with P. berghei, and separated into nine groups. Eight of the infected groups were treated with […] different doses of halofuginone twice a day for eight days. One group was treated with physiological saline as control. […] Two mice were cured at the doses of 0.25 and 0.5 mg/kg and survived 60 days after the treatment. […] The parasites were all cleared at the does of 1 mg/kg on day six.
# [7] = Toxic effects in mice (observation and necropsy analysis); type: in vivo; conditions: for diarrhea / gastrointestinal toxic effects: mice
# [8] = Table 1, D6 strain, read-out: IC50 against P. falciparum D6 strain
# [9] = Table 4, D6, read-out: IC50 P. falciparum (D6)
# [10] = Table 1, W2 strain, read-out: IC50 against P. falciparum W2 strain
# [11] = Table 4, W2, read-out: IC50 P. falciparum (W2)
Molecule,"IC50 ([1]; Table 2, NG108) [µg/mL]","IC50 ([1]; Table 4, NG108) [µg/mL]","IC50 [2, 8] [µg/mL]","IC50 [2, 9] [µg/mL]","IC50 ([3]; Table 2, J774) [µg/mL]","IC50 ([3]; Table 4, J774) [µg/mL]","IC50 [4, 10] [µg/mL]","IC50 [4, 11] [µg/mL]",IC50 [5] [µM],efficacy of oral versus subcutaneous treatment ([6]; one treatment per day for three days),parasitemia of the infected mice ([6]; oral administration),parasitemia of the infected mice ([6]; subcutaneous treatment) [%],toxic effects (nausea and vomiting) in mice ([7]; antimalarial dosages),diarrhea ([7]; effective treatment doses),"gastrointestinal toxic effects ([7]; oral treatment, toxic doses)","gastrointestinal toxic effects ([7]; subcutaneous treatment, toxic doses)",vomiting ([7]; tested mice),diarrhea ([7]; toxic doses),"necropsy findings ([7]; toxic doses, mouse killed by drug)"
COC1CCCN[C@@H]1CC(=O)Cn1cnc2cc3c(cc2c1=O)OCO3 (stereo partly shown) [WR090212],26,24.8,0.0181,0.0189,3.54,2.97,0.0256,0.0234,,,,,,,,,,,
O=C(C[C@H]1NCCCC1O)Cn1cnc2cc3c(cc2c1=O)OCO3 (stereo partly shown) [WR092103],,6.86,,0.00238,,3.61,,0.00293,,,,,,,,,,,
O=C(C[C@H]1NCCCC1O)Cn1cnc2cccc(Cl)c2c1=O (stereo partly shown) [WR139672],1.31,1.16,0.00123,0.00175,0.069,0.392,0.00163,0.00146,,,,,,,,,,,
COC1CCCN[C@@H]1CC(=O)Cn1cnc2ccc3c(c2c1=O)OCO3 (stereo partly shown) [WR140085],10.8,15.5,0.0105,0.0129,3.29,0.425,0.0141,0.0151,,,,,,,,,,,
CCOC1CCCN[C@@H]1CC(=O)Cn1cnc2cc(Br)c(Cl)cc2c1=O (stereo partly shown) [WR221232],5.99,8,0.0111,0.00945,0.287,0.613,0.0172,0.0115,~113,,,,,,,,,,
O=C(C[C@H]1NCCCC1O)Cn1cnc2c(Cl)c(Cl)c(Cl)cc2c1=O (stereo partly shown) [WR222048],1.1,0.879,0.000962,0.00082,0.11,0.499,0.00129,0.00098,,,,,,,,,,,
"(2′S,3′R)-3-[3-(3-hydroxy-2-piperidyl)acetonyl]-4(3H)quinazolinone [Febrifugine]",,,,,,,,,,more efficacious,less than 3%,30,do not appear to have such toxic effects,did not induce diarrhea,severe gastrointestinal lesions and hemorrhage,did not induce GI tract injury,No vomiting has been observed,caused diarrhea,pale liver and intestine lesions and hemorrhage
